Results as given in US9359281B2, “Enantiomers of 2-hydroxy derivatives of fatty acids” (UNIVERSITAT DE LES ILLES BALEARS, priority 2011, dated 2016).

What was measured:
SF268 cells [1] = test: Levels of SM in cell membranes, SF268; format: cell-based, human; conditions: SF268, 200 μM [−]2OHOA
Procedure: (§1) The levels of SM, cultivated in the absence (control) or presence of 200 μM of [−]2OHOA, in normal cell membranes (MRC-5 and IMR90) were measured, and also in several types of tumoral cells (see Table 2). In all cases, we detected that the membranes of tumoral cells have SM levels of about half or a third of that in normal cells (FIG. 1). We can therefore assert that SM concentration is a biomarker which indicates tumorgenesis in human cells. On the other hand, treatments with the molecules of the present invention induce an increase of SM in the tumour cells which is not naturally occurring. […] For example, the spectrophotometry determination of solution fluorescence of the SM levels is a very simple, quick and efficient analysis method (FIG. 1D). Thus, this invention has generated a method for diagnosis for detecting the described pathological processes and pathologies in which there are SM level changes, and also for monitoring the efficiency of the therapy using molecules of the present invention and others of similar activity. Based on this knowledge, this invention also includes kits for diagnosing these diseases.

BXPC3 cells = test: Levels of SM in cell membranes, BXPC3; format: cell-based, human; conditions: BXPC3, 200 μM [−]2OHOA
Procedure: as §1

SF268 cells [2] = test: Cell growth inhibition, SF268; format: cell-based, human; design: key: +: inhibition of cell growth; −: absence of effect
[3] = test system: human lung tumour sections (A549 cells); test: SM marking (lysenin) in A549 tumour sections from treated mice; format: in vivo; conditions: 600 or 900 mg/kg per day, oral, 50 days
Procedure: C. Upper panel: specific marking by immunocytochemical techniques of the SM (left: lysenin followed by an antibody marked with Alexa 488 fluorophore), of nuclear DNA with Hoechst 33258 (center: Hoechst) or both (right, merge). Figures correspond to human lung tumour sections (A549 cells) formed in immuno-depressed mice treated with a vehicle (control) or with [−]2OHOA at 600 mg/kg per day or at 900 mg/kg per day (oral administration, 50 days).
Bottom panel: The ordinate axis represents the quantification of the fluorescence intensity (arbitrary units) by confocal microscopy in slices of tumours shown in the upper panel (average+average standard deviation), coming from animals treated with a vehicle, or 2OHOA at 600 mg/kg per day (T600) or 900 mg/kg per day (T900) during 50 days. *** P<0.001.

Ras protein = test: Ras translocation from membrane to cytoplasm by confocal microscopy; format: cell-based; conditions: human glioma, lung cancer and leukaemia cells
Procedure: The high levels of 2OHOA and SM in the membrane impede the anchoring of the Ras protein on the membrane.
2OHOA increases levels of SM in tumoral cells treated as explained above. […] SM is lipid in the membrane which impedes the bonding of certain molecules involved in the proliferation of cells, such as the Ras protein. In this way, levels of Ras were measured by confocal microscopy, using an antibody marked fluorescently, and we were able to detect that the marker passed from the membrane (FIG. 6: 95-99% of total detected fluorescence in the membrane before treatment) to the cytoplasm (94-97% of fluorescence detected in the inside of the cell after treatment with 2OHOA) in human glioma, lung cancer and leukaemia cells. The translocation of Ras from the membrane to the cytoplasm means an absence of productive interaction between Ras and Receptor-Tirosine-Kinase (RTK) or between Ras and Raf, so the proteins in MAP kinase chain are not activated and the tumoral cells cease to proliferate and programmed cell death starts. Changes in cell physiology induced by the molecules of present invention, have as intermediate effects (prior to the cancer cells death or the regulation of the activity in other cells), the induction of dramatic reductions in DHFR levels and dramatic increases of GFAP levels (FIG. 6).

[4] = test system: Raf, MEK, MAP kinase (ERK1 y ERK2), Akt and EGFR; test: Immunoblot of phosphorylased signalling proteins; format: cell-based, human
Procedure: D: The state of activity (levels of phosphorylased forms) of Akt and EGFR also decreases after incubating with 250 μM of 2OHOA.

| Compound | % SM after treatment (SF268 cells [1]) [%] | % SM after treatment (BXPC3 cells) [%] | Effect (anti-proliferation effect) (SF268 cells [2]) | levels of SM in A549 tumours [3] | Ras fluorescence detected in the inside of the cell after treatment (Ras protein) | state of activity (phosphorylased forms) of Akt and EGFR ([4]; 250 μM) | phosphorylased (active) form of Raf and MEK ([4]; 150, 200 o 250 μM) | state of activity of MAP kinase (ERK1 y ERK2) ([4]; 150, 200 o 250 μM) |
| --- | --- | --- | --- | --- | --- | --- | --- | --- |
| CCCCCCCC/C=C\CCCCCCC(O)C(=O)O (centres unmarked) [[−]2OHOA] [[−] HOOC—HOCH—(CH2)6—(CH═CH—CH2)1—(CH2)6—CH3] | 26 | 26 | + | levels of SM significantly increase |  |  |  |  |
| CCCCCCCC/C=C\CCCCCCC(O)C(=O)O (racemic) [2OHOA, 2-hydroxyoleic acid] |  |  |  |  | 94-97% | decreases | reduction in state of the (active) phosphorylased form of both proteins | dramatic reduction in the state of activity |
